Key:
[1] = target: Cyclin-dependent kinase 1/cyclin B (Homo sapiens, UniProt P06493); assay: Inhibitory concentration against Cyclin-dependent kinase 1-cyclin B; assay type: protein-complex assay
[2] = target: K-562 cell line (Homo sapiens); conditions: k562

IC50 (K-562 (Homo sapiens)) [µM]	IC50 [1] [µM]	IC50 [2] [uM dm**-3]	Compound
46			COc1ccc(CNc2ncnc3c(C(C)C)n[nH]c23)cc1
	3.1	> 167	CC(C)n1cnc2c(NCc3cccc(O)c3)ncnc21
29	11		CC(C)c1n[nH]c2c(NCc3ccccc3Br)ncnc12
54			CC(C)c1n[nH]c2c(NCc3ccccc3O)ncnc12
61	1.2		CCCCCNc1ncnc2c(C(C)C)n[nH]c12
54	5.9		CC(C)n1cnc2c(Nc3cccc(Cl)c3)ncnc21
18.4	0.9		CC(C)c1n[nH]c2c(Nc3cccc(Cl)c3)ncnc12
		112	CC(C)c1n[nH]c2c(NCc3ccc(O)cc3)ncnc12
	2.5	> 167	CC(C)c1n[nH]c2c(NCc3ccco3)ncnc12
	9.1	> 167	CC(C)n1cnc2c(NCc3ccco3)ncnc21
	17	> 167	CC(C)=CCNc1ncnc2c1ncn2C(C)C
	4	> 167	CC(C)n1cnc2c(NCc3ccc(O)cc3)ncnc21
49	23		CC(C)n1cnc2c(NCc3ccccc3Br)ncnc21
		152	CC(C)=CCNc1ncnc2c(C(C)C)n[nH]c12
26	1.1		COc1ccc(CNc2ncnc3c(C(C)C)n[nH]c23)cc1O
88	1.7		CC(C)c1n[nH]c2c(NCc3cccc(O)c3)ncnc12
	4.5	104	COc1ccc(CNc2ncnc3c2ncn3C(C)C)cc1O
66	1.2		CC(C)c1n[nH]c2c(NCc3ccccc3)ncnc12
	6.9	144	CCCCCNc1ncnc2c1ncn2C(C)C
	4.4	125	CC(C)n1cnc2c(NCc3ccccc3O)ncnc21
	3.8	> 167	COc1ccc(CNc2ncnc3c2ncn3C(C)C)cc1

Compound	IC50 (K-562 (Homo sapiens)) [µM]	IC50 [1] [µM]	IC50 [2] [uM dm**-3]
CC(C)n1cnc2c(NCc3ccccc3)ncnc21		3.6	113

— ChEMBL document CHEMBL1136198, “Pyrazolo[4,3-d]pyrimidines as new generation of cyclin-dependent kinase inhibitors” (Bioorg Med Chem Lett, 2003)
